Measured values reported in US20250003968A1, “ACTIVITY-BASED CELL SORTING” (MASSACHUSETTS INSTITUTE OF TECHNOLOGY, priority 2021, published 2025).
*1 amine or outer side, *2 acyl side, *3 side chain or, on linkers, in order; H or OH if unused. Where no end group is shown, it is not given here. [ ]: non-standard residue; d: D form. The star is where a group is joined. 5FAM = O=C1OC2(c3ccc(O)cc3Oc3cc(O)ccc32)c2ccc(C(=O)*)cc21; Suc = O=C(CCC(=O)[*:2])[*:1]; Cy3 = Cy3 fluorophore label; Cy5 = Cy5 fluorophore label; Ahx = NCCCCCC(=O)O

Experiments:
[1] = system: tissue-resident proteases in Eml4-Alk lung tissue sections; assay: In situ zymography with AZPs on fresh-frozen lung tissue sections; assay type: biochemical, mouse; details: for effect of inhibitor on Z1 tissue labeling: Eml4-Alk lung sections, 1 mM marimastat, 400 μM AEBSF or inhibitor cocktail; for AZP labeling of Eml4-Alk lung tissue: individual AZPs on consecutive sections, 7 weeks after tumor induction
Method: Mice were euthanized by isoflurane overdose. Lungs were then filled with undiluted optimal-cutting-temperature (OCT) compound through catheterization of the trachea; the trachea was subsequently clamped; and lungs were extracted. Individual lobes were dissected and then immediately embedded and frozen in optimal-cutting-temperature (OCT) compound (Sakura).
Cryosectioning was performed at the Koch Institute Histology Core. Prior to staining, slides were air dried, fixed in ice-cold acetone for 10 minutes, and then air dried. After hydration in PBS (3×5 minutes), tissue sections were blocked in protease assay buffer (50 mM Tris, 300 mM NaCl, 10 mM CaCl2), 2 mM ZnCl2, 0.02% (v/v) Brij-35, 1% (w/v) BSA, pH 7.5) for 30 minutes at room temperature. Blocking buffer was aspirated, and solution containing fluorescently labeled AZPs (1 μM each AZP) and a free poly-arginine control (polyR, 0.1 μM) diluted in the protease assay buffer was applied. Slides were incubated in a humidified chamber at 37° C. for 4 hours. For inhibited controls, 400 μM AEBSF (Sigma Aldrich), 1 mM marimastat (Sigma Aldrich), or protease inhibitor cocktail (P8340, Sigma Aldrich) spiked with AEBSF and marimastat was added to the buffer at both the blocking and cleavage assay steps. For uninhibited conditions, dimethyl sulfoxide (DMSO) was added to the assay buffer to a final concentration of 3% (v/v). For co-staining experiments, primary antibodies (E-cadherin, AF748, R&D Systems, 4 μg/mL; vimentin, ab92547, Abcam, 0.5 μg/mL; CD31, AF3628, R&D Systems, 10 μg/mL; desmin, ab227651, Abcam, 1.32 μg/mL) were included in the AZP solution. Following AZP incubation, slides were washed in PBS (3×5 minutes), stained with Hoechst (5 μg/mL, Invitrogen) and the appropriate secondary antibody if relevant (Invitrogen, 1:500), washed in PBS (3×5 minutes), and mounted with ProLong™ Diamond Antifade Mountant (Invitrogen). Slides were scanned on a Pannoramic 250 Flash III whole slide scanner (3DHistech).
The Z1 AZP (10 μmol/L) was incubated with recombinant fibroblast activation protein (FAP) in FAP assay buffer (50 mM Tris, 1 M NaCl, pH 7.5) overnight at 37° C. to run the cleavage reaction to completion. After precleavage with recombinant FAP, the AZP solution was diluted to a final peptide concentration of 0.1 μM in protease assay buffer. Cognate intact Z1 AZP (1 μmol/L) and precleaved Z1 AZP, each with a free polyR control (0.1 μM), were applied to fresh-frozen Eml4-Alk lung tissue sections (slide preparation described above) and incubated at 37° C. for 4 hours. After AZP incubation, slides were washed, stained with Hoechst, mounted, and scanned.
AZP and immunofluorescence staining was quantified in QuPath™ 0.2.3[53] and in ImageJ™ (NIH, v1.53). To perform cell-by-cell analysis, cell segmentation was performed using automated cell detection on the DAPI (nuclear) channel. For quantification of activity inhibition, AZP staining was calculated as a fold change of the mean nuclear AZP signal over the mean nuclear polyR signal. All nuclei within an individual tumor were averaged across that given tumor. Nuclei with a polyR intensity of less than 3 were excluded from analysis. For quantification of AZP intensity based on cell morphology and marker expression, cells were annotated as “vimentin-positive, spindle” if they were spindle-shaped and expressed vimentin; “E-cadherin-positive, cuboidal” if they were cuboidal-shaped and expressed E-cadherin; “vimentin-positive, round” if they were rounded and expressed vimentin. A random forest classifier was trained on all annotated cells (at least 20 cells per class) using multiple cellular features, including nuclear area and eccentricity, and mean cellular fluorescence intensity across all channels. The trained classifier was then applied to all cells across all tumors in the tissue section, and mean cellular fluorescence intensity was quantified.

[2] = system: serine proteases of mouse colon tissue sections; assay: AZP staining of frozen mouse colon sections; assay type: biochemical
Description: We validated the AZP principle on colon tissue, whose epithelial cells secrete serine proteases including urokinase plasminogen activator (uPA). We therefore synthesized a Cy5-labeled AZP, termed PZ2 (SEQ ID NO:176), containing a serine protease-cleavable linker. Because similar peptides had never been applied directly to frozen tissue sections, it was unknown whether AZPs would nonspecifically bind to the tissue, or whether proteolytic cleavage would be required for AZP binding. We therefore pre-cleaved PZ2 with a serine protease, mesotrypsin (PRSS3) and applied it to a frozen section of mouse colon for 30 minutes. As a binding control, we also applied intact, uncleaved PZ2 to a consecutive section of mouse colon.
Having verified that proteolytic cleavage induces AZP binding, we next sought to validate whether AZPs could enable localization of protease activity in situ (FIG. 19a). Specifically, it was unknown whether frozen tissue sections would maintain sufficient protease activity to induce probe cleavage or whether cleaved probes would bind at the site of cleavage rather than diffusing to a distant site. We applied PZ2 and a binding control (free polyR-Cy7) to fresh-frozen sections of mouse colon (FIG. 19b). […] These findings verified that protease activity in the tissue section was necessary and sufficient to activate AZPs. Strikingly, we found strong colocalization of PZ2 with E-cadherin, a specific marker of epithelial cells, providing evidence that cleaved AZPs bind at the site of cleavage, rather than diffusing to a distant site (FIG. 19d).

[3] = system: homogenates of prostates from Hi-Myc PCa mice; assay: Multiplexed bead-coupled substrate screen against prostate homogenates; assay type: biochemical, mouse; details: pre-treatment of Hi-Myc prostate homogenates
Method: We turned to the Hi-Myc genetically engineered mouse model of PCa, wherein c-Myc is overexpressed in the murine prostate, resulting in invasive PCa. We selected a panel of 18 peptides previously found by our group to be recognized by a diverse array of metallo- and serine proteases dysregulated in PCa^20 and appended each with a unique, mass-encoded reporter molecule. We coupled these barcoded substrates to magnetic beads via a non-cleavable poly(ethylene glycol) (PEG) linker and incubated the bead cocktail against homogenates of prostates from PCa mice and from age-matched healthy controls (FIG. 20a). Beads were pulled down via magnetic separation, and liberated reporter molecules in the supernatant were measured by mass spectrometry, enabling quantification of substrate cleavage. Unsupervised hierarchical clustering of the cleavage data yielded two distinct clusters corresponding to prostates from PCa mice and prostates from healthy mice (FIG. 20b).

[4] = system: MMP activity in Hi-Myc prostate tissue sections; assay: AZP staining of fresh-frozen Hi-Myc prostate sections; assay type: biochemical, mouse
Description: It was unknown whether AZPs could enable in situ localization of the cleavage of peptides discovered in a screen of bulk homogenates. We therefore synthesized a new AZP (PZ19: SEQ ID NO:186) and applied it to fresh-frozen sections of prostates from Hi-Myc mice (FIG. 21a). With the exception of the protease-cleavable linker and fluorophore, PZ19 was identical in design to the serine protease-responsive PZ2. […] PZ19 labeling was abrogated by the MMP inhibitor marimastat (FIG. 21b middle row), though the free polyR control was unchanged.
It was unknown whether AZPs could be used in conjunction with antibodies to enable dual zymography and immunofluorescence labeling. […] Further, PZ19 labeling and co-localization with Ki67 was abrogated by addition of marimastat (FIG. 21d).

[5] = system: human PCa tissue microarray; assay: AZP staining of fresh-frozen human PCa tissue microarray (TMA); assay type: biochemical; details: for labeling of PCa tissue relative to normal prostates: AZP signal normalized to polyR, normal n=4, PCa n=24 cores; for labeling with vs without broad-spectrum cocktail of protease inhibitors: consecutive TMA sections
Description: Two AZPs incorporating MMP-responsive substrates, PZ16 (SEQ ID NO:184) and PZ19, and two AZPs incorporating serine protease-responsive substrates, Z2 (SEQ ID NO:172) and PZ11 (SEQ ID NO:180), were selected for evaluation. We applied these probes, along with a free polyR control, to a frozen human PCa TMA that contained biopsies from normal prostates and PCa tumors across a range of Gleason scores.
To determine whether AZP binding was dependent on proteolysis, for each probe a consecutive TMA section was treated with a broad-spectrum cocktail of protease inhibitors.
We then investigated whether AZPs preferentially labeled PCa tissue relative to normal prostates. […] AZP activation and tissue staining across the TMA was quantitatively assessed by normalizing AZP signal intensity to polyR signal to account for differing binding propensities within a single core and across individual specimens. […] We further assessed the classification accuracy of these two in situ probes using receiver operating characteristic (ROC) curves.

[6] = system: T1, PZ2, Cy5-labeled AZP containing a serine protease-cleavable linker
T1 sequence: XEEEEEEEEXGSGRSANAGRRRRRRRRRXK

[7] = system: T2, quenched probe Q1, incorporating the substrate S1
T2 sequence: GGPQGIWGQC

Cl.NCCc1ccc(S(=O)(=O)F)cc1 [AEBSF, 4-(2-aminoethyl)benzenesulfonyl fluoride hydrochloride, reference compound]
effect of inhibitor on Z1 tissue labeling [1]: completely abrogated Z1 tissue labeling to the level of broad-spectrum inhibition | effect of inhibitor on PZ2 staining ([2]; four-hour incubation, mouse colon): abrogated | effect of inhibitor on cleavage of PM19 [3]: minimally affected cleavage

CNC(=O)[C@@H](NC(=O)[C@H](CC(C)C)[C@H](O)C(=O)NO)C(C)(C)C [marimastat, reference compound]
effect of inhibitor on Z1 tissue labeling [1]: did reduce Z1 signal | effect of inhibitor on cleavage of PM19 [3]: fully inhibited cleavage of PM19 | effect of inhibitor on PZ19 labeling ([4]; Hi-Myc prostate sections): abrogated

U-eeeeeeee-X-GGLVPRGSGG-rrrrrrrrr-X-K(Cy5) (Suc-[dE][dE][dE][dE][dE][dE][dE][dE][Ahx]GGLVPRGSGG[dR][dR][dR][dR][dR][dR][dR][dR][dR][Ahx]K(Cy5)) [Z2]
labeling of PCa tissue relative to normal prostates [5]: preferentially label PCa tissue | labeling with vs without broad-spectrum cocktail of protease inhibitors [5]: protease-dependent labeling

U-eeeeeeee-X-GPVPLSLVMG-rrrrrrrrr-X-K(5FAM) (Suc-[dE][dE][dE][dE][dE][dE][dE][dE][Ahx]GPVPLSLVMG[dR][dR][dR][dR][dR][dR][dR][dR][dR][Ahx]K(5FAM)) [PZ19]
probe labeling of Hi-Myc prostate sections ([4]; fresh-frozen sections): PZ19 labeling in histologically normal glands of the Hi-Myc prostate | PZ19 labeling of normal mouse prostate ([4]; histologically similar region of healthy prostate): reduced PZ19 labeling | labeling of PCa tissue relative to normal prostates [5]: no significant difference between PCa and normal cores | labeling with vs without broad-spectrum cocktail of protease inhibitors [5]: no difference between the uninhibited and inhibited conditions

U-eeeeeeee-X-GSGRSANAG-rrrrrrrrr-X-K(Cy5) (Suc-[dE][dE][dE][dE][dE][dE][dE][dE][Ahx]GSGRSANAG[dR][dR][dR][dR][dR][dR][dR][dR][dR][Ahx]K(Cy5)) [PZ2]
probe staining of fresh-frozen mouse colon sections ([2]; four-hour incubation): strong PZ2 staining | fluorescence of colon sections treated with intact probe ([2]; intact, 30 minutes): minimal fluorescence | fluorescence of colon sections treated with pre-cleaved probe ([2]; pre-cleaved with mesotrypsin (PRSS3), 30 minutes): notable fluorescent signal throughout

U-eeeeeeee-X-GsGrsanaG-rrrrrrrrr-X-K(Cy5) (Suc-[dE][dE][dE][dE][dE][dE][dE][dE][Ahx]G[dS]G[dR][dS][dA][dN][dA]G[dR][dR][dR][dR][dR][dR][dR][dR][dR][Ahx]K(Cy5)) [dPZ2, AZP with a non-cleavable d-stereoisomer linker]
probe staining of fresh-frozen mouse colon sections ([2]; four-hour incubation): no Cy5 fluorescence

UeeeeeeeeXGGLGPKGQTGGrrrrrrrrrX-k(Cy3) (Suc-[dE][dE][dE][dE][dE][dE][dE][dE][Ahx]GGLGPKGQTGG[dR][dR][dR][dR][dR][dR][dR][dR][dR][Ahx][dK](Cy3)) [Z7]
AZP labeling of Eml4-Alk lung tissue [1]: protease-mediated, tumor-specific labeling

UeeeeeeeeXGGPQGIWGQGrrrrrrrrrX-k(Cy5) (Suc-[dE][dE][dE][dE][dE][dE][dE][dE][Ahx]GGPQGIWGQG[dR][dR][dR][dR][dR][dR][dR][dR][dR][Ahx][dK](Cy5)) [Z1]
Z1 staining in CD31-high cells of Eml4-Alk sections relative to CD31-high healthy and CD31-low cells ([1]; Eml4-Alk and healthy lung sections): significantly increased | Z1 intensity in vimentin-positive spindle-like cells relative to E-cadherin-positive or vimentin-positive rounded cells ([1]; Eml4-Alk tumors): increased Z1 intensity | Z1 staining of Eml4-Alk tumors ([1]; Eml4-Alk tumors vs free polyR binding control): strong, spindle-like staining | Z1 staining of healthy lungs ([1]; healthy lung sections): undetectable | AZP labeling of Eml4-Alk lung tissue [1]: protease-mediated, tumor-specific labeling | tissue labeling pattern of intact Z1 ([1]; intact Z1 1 μmol/L, 37° C. 4 hours, Eml4-Alk tumors): maintained its spindle-like spatial pattern | tissue labeling pattern of FAP-precleaved Z1 ([1]; precleaved with recombinant FAP, 0.1 μM, Eml4-Alk tumors): diffuse, uniform labeling that mirrored that of a free polyR

mesotrypsin (PRSS3)
in vitro pre-cleavage of the probe, read out by tissue fluorescence [6]: We therefore pre-cleaved PZ2 with a serine protease, mesotrypsin (PRSS3)

recombinant fibroblast activation protein (FAP)
fluorescence activation monitored over time (cleavage of quenched probe) [7]: Fibroblast activation protein (FAP) cleaves S1 in vitro
